The IC50 is the concentration needed to halve the response being measured.

For experiment [1], the system named is PBMCs. Nature of the experiment: LPS-induced TNFα/IL-8 release in PBMC cells. The class given is cell-based. Conditions: Homo sapiens, LPS-stimulated PBMCs, IL-8, read-out: IC50 Values for Inhibition of Cytokine Release, PBMCs IL-8. Here is the method:
Peripheral blood mononuclear cells (PBMCs) from healthy subjects are separated from whole blood using a density gradient (Lymphoprep, Axis-Shield Healthcare). The PBMCs are seeded in 96 well plates and treated with compounds at the desired concentration for 2 hours before addition of 1 ng/mL LPS (Escherichia Coli 0111:B4 from Sigma Aldrich) for 24 hours under normal tissue culture conditions (37° C., 5% CO2). The supernatant is harvested for determination of IL-8 and TNFα concentrations by sandwich ELISA (Duo-set, R&D systems) and read on the fluorescence microplate reader (Varioskan® Flash, ThermoFisher Scientific). The concentration at 50% inhibition (IC50) of IL-8 and TNFα production is calculated from the dose response curve.

For experiment [2], the target named is GSK3α (Homo sapiens (Human), UniProt P49840). The experiment is described as follows: GSK 3α enzyme inhibition (FRET, Z-LYTE; Method 2). Format: biochemical. Here is the method:
The enzyme inhibitory activities of compounds disclosed herein are determined by FRET using synthetic peptides labelled with both donor and acceptor fluorophores (Z-LYTE, Invitrogen Ltd., Paisley, UK).
The inhibitory activities of compounds of the invention against the GSK 3α enzyme isoform (Invitrogen), are evaluated by determining the level of activation/phosphorylation of the target peptide. The GSK3-α protein (500 ng/mL, 2.5 μL) is mixed with the test compound (2.5 μL at either 4 μg/mL, 0.4 μg/mL, 0.04 μg/mL, or 0.004 μg/mL) for 2 hr at RT. The FRET peptide (8 μM, 2.5 μL), which is a phosphorylation target for GSK3α, and ATP (40 μM, 2.5 μL) are then added to the enzyme/compound mixture and the resulting mixture incubated for 1 hr. Development reagent (protease, 5 μL) is added for 1 hr prior to detection in a fluorescence microplate reader (Varioskan® Flash, ThermoFisher Scientific).
In all cases, the site-specific protease cleaves non-phosphorylated peptide only and eliminates the FRET signal. Phosphorylation levels of each reaction are calculated using the ratio of coumarin emission (donor) over fluorescein emission (acceptor), for which high ratios indicate high phosphorylation and low ratios indicate low phosphorylation levels. The percentage inhibition of each reaction is calculated relative to non-inhibited control and the 50% inhibitory concentration (IC50 value) is then calculated from the concentration-response curve.
This method follows the same steps as Method 1 above, but utilises a shorter period of mixing of the test compound (105 minutes instead of 2 hours) with the GSK3-α protein.

Structures are written as SMILES.

Sequence of GSK3α (P49840 whole entry): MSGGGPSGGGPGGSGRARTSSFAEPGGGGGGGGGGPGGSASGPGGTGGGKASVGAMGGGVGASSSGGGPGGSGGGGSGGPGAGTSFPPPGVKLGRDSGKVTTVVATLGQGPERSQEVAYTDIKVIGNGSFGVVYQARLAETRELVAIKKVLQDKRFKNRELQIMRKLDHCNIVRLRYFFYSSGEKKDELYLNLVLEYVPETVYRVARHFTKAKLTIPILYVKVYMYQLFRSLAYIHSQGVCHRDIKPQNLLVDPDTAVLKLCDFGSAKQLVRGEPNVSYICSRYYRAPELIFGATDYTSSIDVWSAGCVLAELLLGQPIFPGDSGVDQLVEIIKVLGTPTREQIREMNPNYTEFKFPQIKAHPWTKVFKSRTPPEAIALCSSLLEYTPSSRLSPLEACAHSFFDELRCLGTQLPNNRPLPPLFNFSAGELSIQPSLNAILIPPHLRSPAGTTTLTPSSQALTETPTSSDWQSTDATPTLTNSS

For the molecule `CC(C)(C)c1cc(NC(=O)Nc2ccc(Oc3ccnc(N4CCC[C@@H]4CO)n3)c3ccccc23)n(-c2ccc(P(C)(C)=O)cc2)n1` [Example 27, (R)-1-(3-(tert-Butyl)-1-(4-(dimethylphosphoryl)phenyl)-1H-pyrazol-5-yl)-3-(4-((2-(2-(hydroxymethyl)pyrrolidin-1-yl)pyrimidin-4-yl)oxy)naphthalen-1-yl)urea], the results for the IC50 in experiment [1] and in experiment [2] were 209 nM and 979 nM, respectively.
`CC(C)(C)c1cc(NC(=O)Nc2ccc(Oc3ccnc(NCCCO)n3)c3ccccc23)n(-c2ccc(P(C)(C)=O)cc2)n1` [Example 31, 1-(3-(tert-Butyl)-1-(4-(dimethylphosphoryl)phenyl)-1H-pyrazol-5-yl)-3-(4-((2-((3-hydroxy-propyl)amino)pyrimidin-4-yl)oxy)naphthalen-1-yl)urea]: the IC50 in experiment [1] came to 90.2 nM; in experiment [2], 211 nM.
The corresponding values for `CC(C)(C)c1cc(NC(=O)Nc2ccc(Oc3ccnc(Nc4ccc5c(c4)NC(=O)C5)n3)c3ccccc23)n(-c2cccc(CP(C)(C)=O)c2)n1` [Example 33, 1-(3-(tert-Butyl)-1-(3-((dimethylphosphoryl)methyl)phenyl)-1H-pyrazol-5-yl)-3-(4-((2-((2-oxoindolin-6-yl)amino)pyrimidin-4-yl)oxy)naphthalen-1-yl)urea] are 2.4 nM and 326 nM.
On the same counts, the results for `CC(C)(C)c1cc(NC(=O)Nc2ccc(Oc3ccnc(Nc4cccc(OCCN5CCOCC5)c4)n3)c3ccccc23)n(-c2cccc(CP(C)(C)=O)c2)n1` [Example 34, 1-(3-(tert-Butyl)-1-(3-((dimethylphosphoryl)methyl)phenyl)-1H-pyrazol-5-yl)-3-(4-((2-((3-(2-morpholinoethoxy)phenyl)amino)pyrimidin-4-yl)oxy)naphthalen-1-yl)urea] are 1.1 nM and 324 nM.
As to `COc1ccccc1Nc1nccc(Oc2ccc(NC(=O)Nc3cc(C(C)C)nn3-c3cccc(CP(C)(C)=O)c3)c3ccccc23)n1` [Example 40, 1-(1-(3-((dimethylphosphoryl)methyl)phenyl)-3-isopropyl-1H-pyrazol-5-yl)-3-(4-((2-((2-methoxyphenyl)amino)pyrimidin-4-yl)oxy)naphthalen-1-yl)urea], the IC50 came out at 104 nM in experiment [1] and 8920 nM in experiment [2].
On the same counts, the results for `C#Cc1cc(Nc2nccc(Oc3ccc(NC(=O)Nc4cc(C(C)C)nn4-c4cccc(CP(C)(C)=O)c4)c4ccccc34)n2)cc(C(=O)NCCN2CCOCC2)c1` [Example 43, 3-((4-((4-(3-(1-(3-((Dimethylphosphoryl)methyl)phenyl)-3-isopropyl-1H-pyrazol-5-yl)ureido)naphthalen-1-yl)oxy)pyrimidin-2-yl)amino)-5-ethynyl-N-(2-morpholinoethyl)benzamide] are 1.6 nM and 174 nM.
With `COc1cc(Nc2nccc(Oc3ccc(NC(=O)Nc4cc(C(C)C)nn4-c4cccc(CP(C)(C)=O)c4)c4ccccc34)n2)cc(S(=O)(=O)C2CC2)c1` [Example 46, 1-(4-((2-((3-(Cyclopropylsulfonyl)-5-methoxyphenyl)amino)pyrimidin-4-yl)oxy)naphthalen-1-yl)-3-(1-(3-((dimethylphosphoryl)methyl)phenyl)-3-isopropyl-1H-pyrazol-5-yl)urea], the IC50 is 5.9 nM in experiment [1] and 1600 nM in experiment [2].
On the same counts, the results for `COc1cc(Nc2nccc(Oc3ccc(NC(=O)Nc4cc(C(C)(C)C)nn4-c4cccc(CP(C)(C)=O)c4)c4ccccc34)n2)cc(C(=O)NCCN2CCOCC2)c1` [Example 47, 3-((4-((4-(3-(3-(tert-Butyl)-1-(3-((dimethylphosphoryl)methyl)phenyl)-1H-pyrazol-5-yl)ureido)naphthalen-1-yl)oxy)pyrimidin-2-yl)amino)-5-methoxy-N-(2-morpholinoethyl)-benzamide] are 0.8 nM and 406 nM.
For `CC(C)c1cc(NC(=O)Nc2ccc(Oc3ccnc(Nc4cc(OCCN5CCOCC5)cc(S(C)(=O)=O)c4)n3)c3ccccc23)n(-c2cccc(CP(C)(C)=O)c2)n1` [Example 53, 1-(1-(3-((Dimethylphosphoryl)methyl)phenyl)-3-isopropyl-1H-pyrazol-5-yl)-3-(4-((2-((3-(methylsulfonyl)-5-(2-morpholinoethoxy)phenyl)amino)pyrimidin-4-yl)oxy)naphthalen-1-yl)urea], the IC50 in experiment [1] amounted to 2 nM; in experiment [2] it was 188 nM.
As to `COc1cc(Nc2nccc(Oc3ccc(NC(=O)Nc4cc(C(C)C)nn4-c4cccc(CP(C)(C)=O)c4)c4ncccc34)n2)cc(OCCN2CCOCC2)c1` [Example 54, 1-(1-(3-((Dimethylphosphoryl)methyl)phenyl)-3-isopropyl-1H-pyrazol-5-yl)-3-(5-((2-((3-methoxy-5-(2-morpholinoethoxy)phenyl)amino)pyrimidin-4-yl)oxy)quinolin-8-yl)urea], the IC50 in experiment [1] is 27.4 nM; in experiment [2] it was greater than 10000 nM.
Turning to `COCCOCCOCCOCCOCCOc1cc(Nc2nccc(Oc3ccc(NC(=O)Nc4cc(C(C)C)nn4-c4cccc(CP(C)(C)=O)c4)c4ccccc34)n2)cc(OC)c1` [Example 55, 1-(4-((2-((3-(2,5,8,11,14-Pentaoxahexadecan-16-yloxy)-5-methoxyphenyl)amino)-pyrimidin-4-yl)oxy)naphthalen-1-yl)-3-(1-(3-((dimethylphosphoryl)methyl)phenyl)-3-isopropyl-1H-pyrazol-5-yl)urea], the IC50 came to 5.4 nM in experiment [1] and 1670 nM in experiment [2].
As for `C#Cc1cc(Nc2nccc(Oc3ccc(NC(=O)Nc4cc(C(C)C)nn4-c4cccc(CP(C)(C)=O)c4)c4ccccc34)n2)cc(OCCN2CCOCC2)c1` [Example 56, 1-(1-(3-((Dimethylphosphoryl)methyl)phenyl)-3-isopropyl-1H-pyrazol-5-yl)-3-(4-((2-((3-ethynyl-5-(2-morpholinoethoxy)phenyl)amino)pyrimidin-4-yl)oxy)naphthalen-1-yl)urea], the results for the IC50 in experiment [1] and in experiment [2] were 1.7 nM and 788 nM, respectively.

These data come from patent publication US9796742B2, “Kinase inhibitors” (Respivert Limited, priority 2012, dated 2017).
